The text below walks through data of US6414157B1, “3-Substituted tetrahydropyridopyrimidinone derivatives, method for producing the same, and their use” (Abbott Laboratories, priority 1997, dated 2002).

Series [1] deals with serotonin release in the dorsal raphe nucleus. To be noted: dorsal raphe nucleus of the rat; together with paroxetine; cited from earlier work.
In series [2] the test system is serotonin release in the cortex. To be noted: after systemic administration; cited from earlier work.

Structures can show the parent of a compound that is named as a salt.

A word on the melting point: it is the temperature, or range, at which the solid turns liquid. Take `COc1ccccc1N1CCN(CCn2cnc3c(c2=O)CCN(Cc2ccccc2)C3)CC1` (as salt: hydrochloride): the melting point worked out at 181 °C.
The compound `COc1ccccc1N1CCN(CCCn2cnc3c(c2=O)CN(Cc2ccccc2)CC3)CC1` (as salt: hydrochloride) gave a melting point of 198 °C.
`COc1ccc(NC(=O)c2ccc(-c3ccc(-c4noc(C)n4)cc3C)cc2)cc1N1CCN(C)CC1` [GR 127 935]: the “effect of paroxetine on serotonin release” value in series [1] was “potentiated”. Besides, in series [2], the “serotonin release in the cortex” value is reported as “reduces serotonin release in the cortex”.
